Experiment [1] relates to human A2780 ovarian adenocarcinoma. In words: Human A2780 ovarian cancer xenograft in female nude mice (TMU-A2780-e0001). Format: in vivo. The conditions noted are these: cisplatin 5 mg/kg QWK to end. For orientation: A xenograft is tissue or cells of one species grown in another, often human tumour cells in immunodeficient mice.
The test system of experiment [2] is human RPMI8226 multiple myeloma. In words: Human RPMI8226 multiple myeloma xenograft in female nude mice (TMU-RPMI8226-e0001). The conditions noted are these: SAHA 100 mg/kg once every day. Format: in vivo. The text has this: The 42-day study utilized five groups of mice (n=6) bearing established human PRMI8226 multiple myeloma with mean volumes of ˜85 mm^3 on D1. […] (FIG. 3).

The subject of another experiment is MDA-MB-231. In words: Growth inhibition assay. The experiment is classed as cell-based. The conditions noted are these: Homo sapiens, MDA-MB-231; read-out: MDA-MB-231 GI50 (μM) Mean ± S.E. The protocol:
(§1) Cells were seeded in 96-well plastic plates and exposed to MPT0L056 for 48 hours. Cell viability was assessed using the 3-(4,5-dimethylthiazol-2-yl)-2,5-diphenyltetrazolium bromide assay. Growth inhibition was expressed as the percentage of surviving cells in drug-treated versus DMSO-treated control cells.
(§2) The compounds of the invention were subjected to growth inhibition assay.

The test system of a further experiment is HCT-116. In words: Growth inhibition assay. Format: cell-based. The conditions noted are these: Homo sapiens, HCT-116; read-out: HCT-116 GI50 (μM) Mean ± S.E. As to the method:
as §1, §2

For a further experiment, the system named is Hep 3B. In words: Growth inhibition assay. The experiment is classed as cell-based. The conditions noted are these: Homo sapiens, Hep3B; read-out: Hep3B GI50 (μM) Mean ± S.E. The protocol:
as §1, §2

A further experiment relates to HL-60. In words: Growth inhibition assay. Format: cell-based. The conditions noted are these: Homo sapiens, HL-60; read-out: HL-60 IC50 (μM) Mean ± S.E. The protocol:
as §1, §2

Turning to `N.N.[Cl][Pt][Cl]` [cisplatin, reference compound], the antitumor activity entry in experiment [1] is recorded as “showed antitumor activity”.

On to `O=C(CCCCCCC(=O)Nc1ccccc1)NO` [SAHA, reference compound], for which, in experiment [2], the antitumor activity entry was “also showed antitumor activity” and the “mice with complete regression” value is on record as “one of six”.

One may read the GI50 as the concentration that inhibits growth by half. A word on the IC50: it is the midpoint of a concentration-inhibition curve. On to `O=C(Nc1cnccn1)c1ccc(CNC2=C(Cl)C(=O)c3ccccc3C2=O)cc1` [MPT0L076, 4-(((3-chloro-1,4-dioxo-1,4-dihydronaphthalen-2-yl)amino)methyl)-N-(pyrazin-2-yl)benzamide], for which the GI50 in the experiment on MDA-MB-231 came to 9.19 ± 0.4 µM; with HCT-116, 5.52 ± 0.66 µM; with Hep 3B, 8.77 ± 0.9 µM. Also, the IC50 with HL-60 amounted to 7.27 ± 2.98 µM.

For the molecule `O=C(Nc1cnc2[nH]ncc2c1)c1ccc(CNC2=C(Cl)C(=O)c3ccccc3C2=O)cc1` [MPT0L120, 4-((3-chloro-1,4-dioxo-1,4-dihydronaphthalen-2-ylamino)methyl)-N-(1H-pyrazolo[3,4-b]pyridin-5-yl)benzamide], the 50% growth inhibitory concentration (GI50) with MDA-MB-231, in the experiment on HCT-116 and in the experiment on Hep 3B was 10 to 30 µM in each case. Moreover, in the experiment with HL-60, the IC50 was determined as 7.31 ± 1.94 µM.

Turning to `Cc1cnc(NC(=O)c2ccc(CNC3=C(Cl)C(=O)c4ccccc4C3=O)cc2)s1` [MPT0L098, 4-((3-chloro-1,4-dioxo-1,4-dihydronaphthalen-2-ylamino)methyl)-N-(5-methylthiazol-2-yl)benzamide], the GI50 with MDA-MB-231, in the experiment with HCT-116 and in the experiment on Hep 3B was 10 to 30 µM each time. The IC50 in the experiment on HL-60 worked out at 7.06 ± 0.73 µM.

Take `Cc1cc(NC(=O)c2ccc(CNC3=C(Cl)C(=O)c4ccccc4C3=O)cc2)n[nH]1` [MPT0L099, 4-((3-chloro-1,4-dioxo-1,4-dihydronaphthalen-2-ylamino)methyl)-N-(5-methyl-3H-pyrazol-3-yl)benzamide]: the GI50 in the experiment with MDA-MB-231, with HCT-116 and in the experiment on Hep 3B was 10 to 30 µM throughout. Also, the IC50 in the experiment on HL-60 was in the range of 10 to 30 µM.

Take `Cc1cc(N)nn1C(=O)c1ccc(CNC2=C(Cl)C(=O)c3ccccc3C2=O)cc1` [MPT0L100, 2-(4-(3-amino-5-methyl-1H-pyrazole-1-carbonyl)benzylamino)-3-chloronaphthalene-1,4-dione]: the GI50 in the experiment on MDA-MB-231, with HCT-116 and in the experiment on Hep 3B was 10 to 30 µM throughout. The IC50 with HL-60 was 10 to 30 µM.

Turning to `O=C(Nc1ccc2[nH]cnc2c1)c1ccc(CNC2=C(Cl)C(=O)c3ccccc3C2=O)cc1` [MPT0L093, N-(1H-benzo[d]imidazol-5-yl)-4-((3-chloro-1,4-dioxo-1,4-dihydronaphthalen-2-ylamino)methyl)benzamide], the concentration for 50% growth inhibition (GI50) in the experiment on MDA-MB-231, in the experiment on HCT-116 and in the experiment with Hep 3B was 10 to 30 µM in each case. The IC50 with HL-60 was in the range of 10 to 30 µM.

Take `O=C(Nc1cccnc1)c1ccc(CNC2=C(Cl)C(=O)c3ccccc3C2=O)cc1` [MPT0L055, 4-(((3-chloro-1,4-dioxo-1,4-dihydronaphthalen-2-yl)amino)methyl)-N-(pyridin-3-yl)benzamide]: the GI50 in the experiment on MDA-MB-231, in the experiment on HCT-116 and with Hep 3B was 10 to 30 µM each time. In addition, the IC50 in the experiment with HL-60 was in the range of 10 to 30 µM.

Regarding `O=C(Nc1cccc2[nH]ccc12)c1ccc(CNC2=C(Cl)C(=O)c3ccccc3C2=O)cc1` [MPT0L116, 4-((3-chloro-1,4-dioxo-1,4-dihydronaphthalen-2-ylamino)methyl)-N-(1H-indol-4-yl)benzamide], the GI50 in the experiment on MDA-MB-231, in the experiment on HCT-116 and in the experiment on Hep 3B was 10 to 30 µM throughout. Moreover, the IC50 in the experiment with HL-60 amounted to 4.06 ± 1.82 µM.

`O=C(Nc1cnc2[nH]ccc2c1)c1ccc(CNC2=C(Cl)C(=O)c3ccccc3C2=O)cc1` [MPT0L119, 4-((3-chloro-1,4-dioxo-1,4-dihydronaphthalen-2-ylamino)methyl)-N-(1H-pyrrolo[2,3-b]pyridin-5-yl)benzamide]: the GI50 in the experiment on MDA-MB-231, with HCT-116 and with Hep 3B was 10 to 30 µM throughout. Moreover, the IC50 with HL-60 fell in the range of 10 to 30 µM.

With `O=C(Nc1cccc2ncccc12)c1ccc(CNC2=C(Cl)C(=O)c3ccccc3C2=O)cc1` [MPT0L111, 4-((3-chloro-1,4-dioxo-1,4-dihydronaphthalen-2-ylamino)methyl)-N-(quinolin-5-yl)benzamide], the GI50 with MDA-MB-231, with HCT-116 and with Hep 3B was 10 to 30 µM each time. Besides, the IC50 in the experiment with HL-60 was 2.23 ± 0.27 µM.

Source of the values: patent publication US11919858B2, “Aminonapthoquinone compounds and pharmaceutical composition for blocking ubiquitination-proteasome system in diseases” (Calgent Biotechnology Co., Ltd., priority 2015, dated 2024).
